Patent publication US9034871B2, “Compounds for Alzheimer's disease” (priority 2004, dated 2015)
Where two headings read alike, the source gives them in different places.

Tested on: Aβ42
Test: Detection of secreted Aβ42 with Biosource ELISA kit in H4 cells expressing APP695
Format: cell-based
Description: The present invention provides compositions and methods for lowering Aβ42 levels. To test whether compounds and compositions are capable of modulating Aβ levels, a sandwich enzyme-linked immunosorbent assay (ELISA) is employed to measure secreted Aβ (Aβ42 and/or Aβ40) levels. In this example, H4 cells expressing wide type APP695 are seeded at 200,000 cells/per well in 6 well plates, and incubated at 37 degree C. with 5% CO2 overnight. Cells are treated with 1.5 ml medium containing vehicle (DMSO) or a test compound at 1.25 μM, 2.5 μM, 5.0 μM and 10.0 μM (as well as other concentration if desirable) concentration for 24 hours or 48 hours. The supernatant from treated cells is collected into eppendorf tubes and frozen at −80 degree C. for future analysis.
The amyloid peptide standard is reconstituted and frozen samples are thawed. The samples and standards are diluted with appropriate diluents and the plate is washed 4 times with Working Wash Buffer and patted dry on a paper towel. 100 μL per well of peptide standards, controls, and dilutions of samples to be analyzed is added. The plate is incubated for 2 hours while shaking on an orbital plate shaker at RT. The plate is then washed 4 times with Working Wash Buffer and patted dry on a paper towel. Detection Antibody Solution is poured into a reservoir and 100 μL /well of Detection Antibody Solution is immediately added to the plate. The plate is incubated at RT for 2 hours while shaking and then washed four times with Working Wash Buffer and patted dry on a paper towel. Secondary Antibody Solution is then poured into a reservoir and 100 μL /well of Secondary Antibody Solution is immediately added to the plate. The plate is incubated at RT for 2 hours with shaking, washed 5 times with Working Wash Buffer, and patted dry on a paper towel.
100 μL of stabilized chromogen is added to each well and the liquid in the wells begins to turn blue. The plate is incubated for 30 minutes at room temperature and in the dark. 100 μL of stop solution is added to each well and the plate is tapped gently to mix resulting in a change of solution color from blue to yellow. The absorbance of each well is read at 450 nm having blanked the plate reader against a chromogen blank composed of 100 μL each of stabilized chromogen and stop solution. The plate is read within 2 hours of adding the stop solution. The absorbance of the standards is plotted against the standard concentration and the concentrations of unknown samples and controls are calculated.
These compounds were synthesized via the indicated synthetic route. Ab42 IC50 (uM) refers to IC50 value for Ab42 lowering in e.g., the assay described in Example 6.

[1] = Ab42 lowering, cell based assay, read-out: Ab42 IC50
[2] = IC50 value for Ab42 lowering in e.g. the assay described in Example 6, read-out: Ab42 IC50
[3] = cell based assay described in Example 6, read-out: Ab42 lowering IC50

Compound	IC50 [1] [µM]	other results
O=C(O)CCCn1c(-c2ccccc2)cc2c3ccccc3ccc21 [Compound 68, 4-(2-phenyl-benzo[e]indol-3-yl) butyric acid]	–	IC50 [2]: 31 µM
O=C(O)c1ccc(-n2c(-c3ccccc3)cc3c2CC(C(F)(F)F)CC3)o1 (stereo not shown) [5-(2-phenyl-6-trifluoromethyl 4,5,6,7-tetrahydroindol-1-yl)-furan-2-carboxylic acid]	25	–
c1cncc(-c2cc3c4ccccc4ccc3n2-c2cccc(-c3nn[nH]n3)c2)c1 [2-pyridin-3-yl-3-[3-(2H-tetrazol-5-yl)-phenyl]-3H-benzo[e]indole]	46	–
c1ccc(-c2cc(-c3cc4c(n3-c3cccc(-c5nn[nH]n5)c3)CCc3ccccc3-4)on2)cc1 [Compound 138, 2-(3-phenylisoxazol-5-yl)-3-[3-(2H-tetrazol-5-yl)-phenyl]-4,5-dihydro-3H-benzo[e]indole]	–	IC50 [3]: 10 µM
CC(C)(C)C1CCc2c(cc(-c3ccccc3)n2-c2cccc(CCC(=O)O)c2)C1 (stereo not shown) [Compound 85, 3-[3-(5-tert-Butyl-2-phenyl 4,5,6,7-tetrahydroindol-1-yl)-phenyl] propionic acid]	–	IC50 [2]: 20 µM
O=C(O)c1ccc(-n2c(-c3ccc(N4CCOCC4)cc3)cc3c2CCC(C(F)(F)F)C3)o1 (stereo not shown) [5-[2-(4-morpholin-4-yl-phenyl)-5-trifluoromethyl-4,5,6,7-tetrahydroindol-1-yl]-furan-2-carboxylic acid]	68	–
O=C(O)c1cccc(-n2c(-c3ccncc3)cc3c2CCc2ccccc2-3)c1 [3-(2-pyridin-4-yl-4,5-dihydrobenzo[e]indol-3-yl) benzoic acid]	65	–
c1ccc(-c2cc3c4ccccc4ccc3n2-c2cccc(-c3nn[nH]n3)c2)nc1 [2-pyridin-2-yl-3-[3-(2H-tetrazol-5-yl)-phenyl]-3H-benzo[e]indole]	32	–
c1ccc(-c2cc3c(n2-c2cccc(-c4nn[nH]n4)c2)CCCC3)cc1	100	–
O=C(O)c1ccc(-c2cc3c(n2-c2cccnc2)CCc2ccccc2-3)cc1 [4-(3-pyridin-3-yl-4,5-dihydro-3H-benzo[e]indol-2-yl) benzoic acid]	> 100	–
O=C(O)c1cccc(-n2c(-c3cc(-c4ccccc4)no3)cc3c2CCc2ccccc2-3)c1 [Compound 139]	–	IC50 [3]: 2 µM
O=C(O)CCCc1ccc(-n2c(-c3ccccc3)cc3c4ccccc4ccc32)cc1 [Compound 89, 4-[4-(2-phenyl-benzo[e]indol-3-yl)-phenyl] butyric acid]	–	IC50 [2]: 8 µM
O=C(O)c1ccc(-n2c(-c3ccc(Cl)c(Cl)c3)cc3c4ccccc4ccc32)o1 [5-[2-(3,4-dichlorophenyl)-benzo[e]indol-3-yl]-furan-2-carboxylic acid]	7	–
O=C(O)c1cccc(-n2c(-c3cccnc3)cc3c2CCc2ccccc2-3)c1 [3-(2-pyridin-3-yl-4,5-dihydrobenzo[e]indol-3-yl) benzoic acid]	> 100	–
O=C(O)c1cccc(-n2c(-c3cc4ccccc4o3)cc3c4ccccc4ccc32)c1 [3-(2-benzofuran-2-yl-benzo[e]indol-3-yl) benzoic acid]	1.17	–
O=C(O)c1cccc(-n2c(-c3ccncc3)cc3c4ccccc4ccc32)c1 [3-(2-pyridin-4-yl-benzo[e]indol-3-yl) benzoic acid]	81	–
CC(C)(C)C1CCc2c(cc(-c3ccccc3)n2-c2cccc(C(=O)O)c2)C1 (stereo not shown) [Compound 34, 3-(5-tert-butyl-2-phenyl-4,5,6,7-tetrahydroindol-1-yl)benzoic acid]	–	IC50 [2]: 8 µM

More lines, main results first:

IC50 [1] [µM]	Compound	other results
18	CCC(C)(C)C1CCc2c(cc(-c3cc4ccccc4o3)n2-c2ccc(C(=O)O)o2)C1 (stereo not shown) [5-[2-benzofuran-2-yl-5-(1,1-dimethylpropyl) 4,5,6,7-tetrahydroindol-1-yl]-furan-2-carboxylic acid]	–
14	CC(C)(C)C1CCc2c(cc(-c3ccc(C(F)(F)F)cc3)n2-c2ccc(C(=O)O)o2)C1 (stereo not shown) [5-[5-tButyl-2-(4-trifluoromethylphenyl)-4,5,6,7-tetrahydroindol-1-yl] furan-2-carboxylic acid]	–
